According to article PMC8073907, “Peptide targeting of lysophosphatidylinositol-sensing GPR55 for osteoclastogenesis tuning” (Cell Communication and Signaling : CCS, 2021):

Tests used:
[1] = test system: HA-GPR55 in HEK293T cells; assay: LPI-induced ERK1/2 activation in GPR55-transfected HEK293T cells; type: cell-based, human; details: 10 µM LPI
Source text: The construct of haemagglutinin (HA)-tagged human GPR55 in pcDNA3 (HA-GPR55) was a gift from Prof. K. Mackie, Indiana University, Bloomington, IN, USA [39], while the construct ss-3 × HA-GPR55 in pcDNA3.1 (ssGPR55) with a triple HA tag at the N-terminus and an optimised signal sequence (ss, derived from amino acids 1–33 of the human growth hormone: […]) for efficient surface expression was from Prof. A. Irving, Dundee University, UK [40]. For both constructs, mutations were introduced by site-directed mutagenesis using QuickChange kits (Stratagene, La Jolla, CA, USA), according to the manufacturer instructions. The primers for the K80A mutation were 5′-[…]-3′ and 5′-[…]-3′ (Tm, 70.6 °C), and for Q87A were 5′-[…]-3′ and 5′-[…]-3′ (Tm, 73.1 °C).
For GPR55 overexpression, HEK293T cells were plated in their growth medium without antibiotics at 2.6 × 10^5 cells/well in 12-well plates, and 24 h later, the cells were transfected with 1 µg cDNA/well using Lipofectamine 2000, according to the manufacturer instructions. The pcDNA3 empty vector or that coding for human HA-GPR55 wild-type or its mutants HA-GPR55-K80A and HA-GPR55-Q87A were used.
Twenty-four hours after transfection (HEK293T, HeLa cells or clones) or 72 h after interference (RAW264.7 cells), the cells were washed twice with HBSS^++, serum deprived (HEK293T cells for 4 h in DMEM; HeLa cells and clones for 2 h in MEM plus 2 mM glutamine and 25 mM HEPES; RAW264.7 cells for 2 h in DMEM), washed once again with HBSS^++, incubated in stimulation buffer (HBSS^++ with 10 mM HEPES, 0.4% faf-BSA for HEK293T cells; HBSS^++ with 25 mM HEPES and 0.01% faf-BSA for HeLa cells, clones, and RAW264.7 cells) in the absence or presence of stimuli, at 37 °C for the indicated times. […]
Protein lysates were subjected to SDS-PAGE, and after electrophoresis, the proteins were transferred to a nitrocellulose membrane (PerkinElmer Life Science, Boston, MA, USA). […] The membranes were then washed twice with T-TBS and once with TBS for 5 min, and the signals were detected by ECL (Amersham Pharmacia, Piscataway, NJ, USA). […]

[2] = test system: endogenous GPR55 in RAW264.7 cells; assay: Intracellular Ca2+ assay in siRNA-interfered RAW264.7 cells; type: cell-based, murine; details: si-NT cells, 72 h of interference; 10 µM 16:0 LPI, within the first minute
Description: For transient interference of Gpr55, RAW264.7 cells were plated at 6 × 10^5 cells/well in six-well plates in growth medium without antibiotics. Twenty-four hours later, the cells were transfected with 250 pmol/well non-targeting small-interfering (si)RNAs (si-NT; siGENOME siRNA Pool #2; D-001206-14; Dharmacon, Chicago, IL, USA) or Gpr55-specific siRNAs (si-GPR55; siGENOME mouse GPR55 SMART pool; M-043590-01; Dharmacon) using Lipofectamine LTX and Plus Reagent, according to the manufacturer instructions. Twenty-four hours later, the cells were plated for the different assays or for RNA extraction. The efficiency of interference was monitored by real-time PCR after 72 h of interference, using the primers listed in the Additional file 1: Table S1. β2-microglobulin was followed as a housekeeping gene.
After 48 h of siRNA treatments, the RAW264.7 cells were detached with 600 μM EDTA in PBS, and plated at a density of 8 × 10^4 cells/well in 96-well plates. […] All the subsequent incubation steps were performed at 37 °C within the Fluoroskan Ascent FL (Thermo Fisher Scientific, Waltham, MA USA) and the fluorescence recorded with an Ex 485/ Em 520 every 3 s. The baseline fluorescence was monitored for 5 min, then 50 μL assay buffer (0.01% faf-BSA, 20 mM HEPES in HBSS^++) was added without or with 10 μM 16:0 LPI, and fluorescence was recorded for a further 5 min. […]

lysophosphatidylinositol [LPI]
activation kinetics of ERK1/2 ([1]; HEK293T with HA-GPR55 wild-type, K80A or Q87A): comparable activation kinetics of ERK1/2 in all of the transfectants
ERK1/2 phosphorylation, GPR55-transfected and empty-vector-transfected cells ([1]; HEK293T): increased phosphorylation of ERK1/2
mean increase of intracellular Ca2+ over basal levels [2]: ~ 40 nM
